Structures can show the parent of a compound that is named as a salt. Where two headings read alike, the source gives them in different places.
Assays:
[1] = biological target: T1, WEE1 kinase (Homo sapiens, UniProt P30291); assay: Inhibitory effect on WEE1 kinase in vitro (ELISA); format: biochemical; conditions: ATP concentration of Km (12 μM), WEE1 0.15 ng/μL, 60 min
T1 construct: purchased CarnaBiosciences, Inc. 05-177
Method: I. Inhibitory Effect of Compound on WEE1 Kinase In Vitro
The tested compounds were screened on WEE1 kinase with ATP concentration of Km by ELISA. Three compounds were screened on WEE1 kinase to evaluate the kinase inhibitory activity of the tested compounds. In the detection process, the initial concentration of the tested compounds was all selected as 100 nM, and each compound was selected with 6 gradient dilution concentrations, the gradient dilution ratio was 4-fold, and two replicate wells were detected for each concentration, MK1775 was used as the standard control.
1. Coating substrate: 1) An appropriate volume of substrate storage solution protein tyrosinase (PTK) substrate (poly-Glu-Tyr) was taken, diluted 10 times with PBS, and the concentration was diluted from […]. The mixture was added to a high adsorption 96-well plate at 125 μL per well. The plate was placed in an incubator at 37° C. for overnight coating. 2) After 24 hours, the 96-well plate was taken out, the liquid in the 96-well plate was poured out, cleaned with washing buffer for 3 times, and the incubator at 37 was inverted and dried for 2 hours.
3. Enzyme reaction stage: 1) WEE1 kinase and ATP were prepared into 2× enzyme solution and 4× ATP solution respectively with 1× reaction buffer.
4. Reaction termination stage: 1) the reaction mixture in the plate was poured out, 200 μL of washing buffer was added to each well, and washed for 5 times; the primary antibody P-Tyr (PY99) (dilution ratio 1:2000) was added, 100 μL per well, at room temperature for 30 min. 2) The primary antibody in the plate was poured out, 200 μL of washing buffer was added to each well, and washed for 5 times; the second antibody Anti-mouse IgG HRP-linked Antibody (dilution ratio 1:2000) was added, 100 μL per well, at room temperature for 30 min. 3) The secondary antibody in the plate was poured out, washed 5 times with washing buffer, and TMB was added, 100 μL per well, and colored for 10-30 min, depending on the color depth. The reaction was terminated with 1N sulfuric acid before reading.
5. […] 2) Graphpad Prism 5.0 was used to fit Log(inhibitor) vs. response-Variable slope (four parameters) curves to the data, and the corresponding IC50 (half maximal inhibitory concentration) was calculated.

[2] = tested on: Hela cells; assay: Proliferation inhibition of Hela cells (Luminescence ATP Detection, ATPlite); format: cell-based; conditions: Homo sapiens, 72 hours
Method: (§1) I. Proliferation Inhibitory of the Compound on COLO 205 Cells and Hela Cells.
(§2) COLO205 cells, purchased from SIBS, generation P11; Hela purchased from ATCC, generation P13.
Cell culture and inoculation: on the first day of the experiment, cells in normal culture were taken in their exponential growth state, digested and dispersed, the cell density was adjusted to 9×10^3 cells/mL, and 40 μL per well were inoculated into 384-well cell culture plates; after inoculation was completed, the microplates were placed at 37° C. and 5% CO2 for incubation.
(§3) Drug treatment of cells: on the second day of the experiment, microplates were removed from the incubator, 9× compound were added to each well in the microplate, and 5 μL was added to each well, wherein there were 2 replicate wells for each drug concentration and 10 drug concentrations for each compound. According to different cell lines, the initial concentration of each compound was different, after the completion, the microplate was cultured at 37° C. and 5% CO2 for 72 hours.
(§4) Data collection: the microplates were removed from the incubator and equilibrated at room temperature for 30 minutes. 40 μL of ATPlite reaction mixture after room temperature equilibrium was added to each well, the solution was shaken at room temperature of 1300 rpm for 2 minutes, and then the microplate was placed in a HERAEUS Multifuge X1R centrifuge at 2000 rpm for 1 minute; after equilibrium at room temperature for 10 minutes, the fluorescence signal value was measured on EnVision™.
(§5) Calculation of cell viability: Cell viability(%)=signal value of administration/signal value of controlx 100%. Graphpad Prism 5.0 was used to fit Log(inhibitor) vs. response-Variable slope (four parameters) curves to the fluorescence signal values at each concentration, and the corresponding IC50 (half maximal inhibitory concentration) was calculated.

[3] = tested on: COLO 205 cells; assay: Proliferation inhibition of COLO 205 cells (Luminescence ATP Detection, ATPlite); format: cell-based; conditions: Homo sapiens; p53-deficient cell line COLO 205, 72 hours
Method: as §1, §2
as §3, with “third” for “second”
as §4, with “collection: The” for “collection: the”, “minutes. 100” for “minutes. 40”
as §5

T1 sequence (P30291 whole entry): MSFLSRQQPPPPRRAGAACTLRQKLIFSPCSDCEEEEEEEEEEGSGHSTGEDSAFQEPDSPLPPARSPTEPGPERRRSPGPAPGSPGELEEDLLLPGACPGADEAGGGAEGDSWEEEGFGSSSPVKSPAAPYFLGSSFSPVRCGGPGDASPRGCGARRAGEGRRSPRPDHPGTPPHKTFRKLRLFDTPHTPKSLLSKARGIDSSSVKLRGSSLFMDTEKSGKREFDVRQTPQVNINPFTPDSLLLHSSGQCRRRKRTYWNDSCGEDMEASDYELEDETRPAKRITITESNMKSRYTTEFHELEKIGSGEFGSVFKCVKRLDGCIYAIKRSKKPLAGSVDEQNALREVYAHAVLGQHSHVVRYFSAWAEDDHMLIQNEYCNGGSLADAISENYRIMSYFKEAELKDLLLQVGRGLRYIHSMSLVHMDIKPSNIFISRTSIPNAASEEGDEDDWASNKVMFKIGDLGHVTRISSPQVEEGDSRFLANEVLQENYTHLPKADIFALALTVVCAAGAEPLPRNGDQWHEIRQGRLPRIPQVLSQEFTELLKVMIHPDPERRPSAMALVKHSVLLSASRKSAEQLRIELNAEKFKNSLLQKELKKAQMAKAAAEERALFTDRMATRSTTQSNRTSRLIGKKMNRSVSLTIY

Structure (SMILES) | IC50 ([1]; read-out: WEE1 IC50) | IC50 [2] | IC50 ([1]; WEE1 IC50, nM) | IC50 [3]
C=CCn1c(=O)c2cnc(Nc3ccc(N4CCN(C)CC4)cc3)nc2n1-c1ccc2c(n1)C(O)CC2 (stereo not drawn) [Compound I-1, 2-allyl-1-(7-hydroxy-6,7-dihydro-5H-cyclopenta[b]pyridin-2-yl)-6-((4-(4-methylpiperazin-1-yl)phenyl)amino)-1,2-dihydro-3H-pyrazolo[3,4-d]pyrimidin-3-one] | – | 495 nM | 2.85 nM | 1880 nM
C=CCn1c(=O)c2cnc(Nc3ccc(N4CCN(CC)CC4)cc3)nc2n1-c1ccc2c(n1)C(O)CC2 (stereo not drawn) [Compound I-2] | 2.55 nM | 345 nM | – | 1740 nM
C=CCn1c(=O)c2cnc(Nc3ccc(C4CCN(C)CC4)cc3)nc2n1-c1ccc2c(n1)C(O)CC2 (stereo not drawn) [Compound I-3] | 2.68 nM | 434 nM | – | 5150 nM
C=CCn1c(=O)c2cnc(Nc3ccc(N4CCN(CC5CC5)CC4)cc3)nc2n1-c1ccc2c(n1)C(O)CC2 (stereo not drawn) [Compound I-4] | 4.43 nM | 395 nM | – | 1970 nM
C=CCn1c(=O)c2cnc(Nc3ccc(N4CCC(CN(C)C)CC4)cc3)nc2n1-c1ccc2c(n1)C(O)CC2 (stereo not drawn) [Compound I-5, 2-allyl-6-((4-(4-((dimethylamino)methyl)piperidin-1-yl)phenyl)amino)-1-(7-hydroxy-6,7-dihydro-5H-cyclopenta[b]pyridin-2-yl)-1,2-dihydro-3H-pyrazolo[3,4-d]pyrimidin-3-one] | 3.62 nM | 392 nM | – | 2550 nM
C=CCn1c(=O)c2cnc(Nc3ccc(CN4CCN(C)CC4)cc3)nc2n1-c1ccc2c(n1)C(O)CC2 (stereo not drawn) [Compound I-7] | 9.69 nM | 2900 nM | – | –
C=CCn1c(=O)c2cnc(Nc3ccc(N4CCC5(CC4)CN(C)C5)cc3)nc2n1-c1ccc2c(n1)C(O)CC2 (stereo not drawn) [Compound I-8] | 11.3 nM | – | – | –
C=CCn1c(=O)c2cnc(Nc3ccc(N4CCC5(CCN(C)CC5)CC4)cc3)nc2n1-c1ccc2c(n1)C(O)CC2 (stereo not drawn) [Compound I-9, 2-allyl-1-(7-hydroxy-6,7-dihydro-5H-cyclopenta[b]pyridin-2-yl)-6-((4-(9-methyl-3,9-diazaspiro[5.5]undecan-3-yl)phenyl)amino)-1,2-dihydro-3H-pyrazolo[3,4-d]pyrimidin-3-one] | 2.87 nM | 191 nM | – | 614 nM
C=CCn1c(=O)c2cnc(Nc3ccc(N4CC5CC4CN5)cc3)nc2n1-c1ccc2c(n1)C(C)(O)CC2 (stereo not drawn) [Compound I-12, 6-((4-(2,5-diazabicyclo[2.2.1]heptan-2-yl)phenyl)amino)-2-allyl-1-(7-hydroxy-7-methyl-6,7-dihydro-5H-cyclopenta[b]pyridin-2-yl)-1,2-dihydro-3H-pyrazolo[3,4-d]pyrimidin-3-one] | 3.68 nM | – | – | –
C=CCn1c(=O)c2cnc(Nc3ccc(N4CCOCC4)cc3)nc2n1-c1ccc2c(n1)C(C)(O)CC2 (stereo not drawn) [Compound I-15] | 3.85 nM | – | – | –
C=CCn1c(=O)c2cnc(Nc3ccc(CCC(=O)N4CCCC4)cc3)nc2n1-c1ccc2c(n1)C(C)(O)CCC2 (stereo not drawn) [Compound I-17, 2-allyl-1-(8-hydroxy-8-methyl-5,6,7,8-tetrahydroquinolin-2-yl)-6-((4-(3-oxo-3-(pyrrolidin-1-yl)propyl)phenyl)amino)-1,2-dihydro-3H-pyrazolo[3,4-d]pyrimidin-3-one] | 12.8 nM | – | – | –
C=CCn1c(=O)c2cnc(Nc3ccc(N4CCNCC4)cc3)nc2n1-c1ccc2c(n1)C(C)(O)CCC2 (stereo not drawn) [Compound I-18, 2-allyl-1-(8-hydroxy-8-methyl-5,6,7,8-tetrahydroquinolin-2-yl)-6-((4-(piperazin-1-yl)phenyl)amino)-1,2-dihydro-3H-pyrazolo[3,4-d]pyrimidin-3-one] | 2.03 nM | – | – | –
C=CCn1c(=O)c2cnc(Nc3ccc(N4CCC5(CC4)CN(C)C5)cc3)nc2n1-c1ccc2c(n1)C(O)CCC2 (stereo not drawn) [Compound I-20, 2-allyl-1-(8-hydroxy-5,6,7,8-tetrahydroquinolin-2-yl)-6-((4-(2-methyl-2,7-diazaspiro[3.5]nonan-7-yl)phenyl)amino)-1,2-dihydro-3H-pyrazolo[3,4-d]pyrimidin-3-one] | 4.41 nM | – | – | –

The next lines start with the values.

IC50 ([1]; read-out: WEE1 IC50) | IC50 [2] | IC50 ([1]; WEE1 IC50, nM) | IC50 [3] | Structure (SMILES)
5.86 nM | – | – | – | C=CCn1c(=O)c2cnc(Nc3ccc([C@H]4CC[C@@H](N(C)C)CC4)cc3)nc2n1-c1ccc2c(n1)C(O)CC2 (single isomer, unassigned) [Compound I-30-1]
6.6 nM | – | – | – | C=CCn1c(=O)c2cnc(Nc3ccc([C@H]4CC[C@@H](N(C)C)CC4)cc3)nc2n1-c1ccc2c(n1)C(O)CC2 (single isomer, unassigned) [Compound I-30-2]
4.75 nM | – | – | – | C=CCn1c(=O)c2cnc(Nc3ccc([C@H]4CC[C@@H](N(C)C)CC4)cc3)nc2n1-c1ccc2c(n1)C(C)(O)CCC2 (single isomer, unassigned) [Compound I-36-1]
2.65 nM | – | – | – | C=CCn1c(=O)c2cnc(Nc3ccc([C@H]4CC[C@@H](N(C)C)CC4)cc3)nc2n1-c1ccc2c(n1)C(C)(O)CCC2 (single isomer, unassigned) [Compound I-36-2]
5.75 nM | – | – | – | C=CCn1c(=O)c2cnc(Nc3ccc(N4CCC5(CC4)CNC5)cc3)nc2n1-c1ccc2c(n1)C(O)CCC2 (stereo not drawn) [Compound I-21, 6-((4-(2,7-diazaspiro[3.5]nonan-7-yl)phenyl)amino)-2-allyl-1-(8-hydroxy-5,6,7,8-tetrahydroquinolin-2-yl)-1,2-dihydro-3H-pyrazolo[3,4-d]pyrimidin-3-one]
3.55 nM | – | – | – | C=CCn1c(=O)c2cnc(Nc3ccc(N4CCC5(CCNC5)CC4)cc3)nc2n1-c1ccc2c(n1)C(O)CCC2 (stereo not drawn) [Compound I-22]
3.81 nM | – | – | – | C=CCn1c(=O)c2cnc(Nc3ccc(N4CCNCC4)cc3)nc2n1-c1ccc2c(n1)C(O)CCC2 (stereo not drawn) [Compound I-24]
4.05 nM | – | – | – | C=CCn1c(=O)c2cnc(Nc3ccc(N4CC5CC4CN5)cc3)nc2n1-c1ccc2c(n1)C(O)CCC2 (stereo not drawn) [Compound I-25]
3.58 nM | – | – | – | C=CCn1c(=O)c2cnc(Nc3ccc(N4CCC(N(C)C)CC4)cc3)nc2n1-c1ccc2c(n1)C(O)CCC2 (stereo not drawn) [Compound I-28, 2-allyl-6-((4-(4-(dimethylamino)piperidin-1-yl)phenyl)amino)-1-(8-hydroxy-5,6,7,8-tetrahydroquinolin-2-yl)-1,2-dihydro-3H-pyrazolo[3,4-d]pyrimidin-3-one formate]
3.12 nM | – | – | – | C=CCn1c(=O)c2cnc(Nc3ccc(N4C[C@H]5CN(C)C[C@H]5C4)cc3)nc2n1-c1ccc2c(n1)C(O)CC2 (stereo partly drawn) [Compound I-31]
11.8 nM | – | – | – | C=CCn1c(=O)c2cnc(Nc3ccc(N4C[C@H]5CN(CC)C[C@H]5C4)cc3)nc2n1-c1ccc2c(n1)C(O)CC2 (stereo partly drawn) [Compound I-37]
– | 322 nM | – | – | C=CCn1c(=O)c2cnc(Nc3ccc(N4CC5(CC(N(C)C)C5)C4)cc3)nc2n1-c1ccc2c(n1)C(O)CC2 (stereo not drawn) [Compound I-42]
4.91 nM | – | – | – | C=CCn1c(=O)c2cnc(Nc3ccc(CCCN(C)C)cc3)nc2n1-c1ccc2c(n1)C(O)CC2 (stereo not drawn) [Compound I-43]

Source: patent publication US20220324868A1, “Pyrazolone-Fused Pyrimidine Compound, and Preparation Method and Use Therefor” (SHANGHAI PHARMACEUTICALS HOLDING CO., LTD., priority 2019, published 2022)
